Test results as given in ChEMBL document CHEMBL1240386, “Pharmacokinetics of antituberculosis drugs in pulmonary tuberculosis patients with type 2 diabetes” (Antimicrob Agents Chemother, 2010).

Legend:
Type in all cases: ADME, organism-based
[1] = AUC (0 to 24 hrs) in diabetic tuberculosis patient at 10 mg/kg, po and 10 mg/kg, iv by HPLC analysis; conditions: human, plasma
[2] = AUC (0 to 24 hrs) in tuberculosis patient at 10 mg/kg, po by HPLC analysis; set-up: time < 24 hr, dose 10 mg/kg, route oral; conditions: human, plasma
Homo sapiens [3] = species on record: Homo sapiens; assay: Ratio of AUC (0 to 24 hrs) for diabetic tuberculosis patient to AUC (0 to 24 hrs) for tuberculosis patient; conditions: in vivo
[4] = Cmax in diabetic tuberculosis patient at 10 mg/kg, po and 10 mg/kg, iv by HPLC analysis; conditions: human, in vivo
[5] = Cmax in tuberculosis patient at 10 mg/kg, po by HPLC analysis; set-up: dose 10 mg/kg, route oral; conditions: human, in vivo
Homo sapiens [6] = species on record: Homo sapiens; assay: Ratio of Cmax in diabetic tuberculosis patient to Cmax in tuberculosis patient; conditions: in vivo
[7] = Tmax in diabetic tuberculosis patient at 10 mg/kg, po and 10 mg/kg, iv by HPLC analysis; conditions: human, in vivo
[8] = Tmax in tuberculosis patient at 10 mg/kg, po by HPLC analysis; set-up: dose 10 mg/kg, route oral; conditions: human, in vivo
[9] = Half life in diabetic tuberculosis patient at 10 mg/kg, po and 10 mg/kg, iv by HPLC analysis; conditions: human, in vivo
[10] = Half life in tuberculosis patient at 10 mg/kg, po by HPLC analysis; set-up: dose 10 mg/kg, route oral; conditions: human, in vivo
Homo sapiens [11] = species on record: Homo sapiens; assay: Ratio of half life in diabetic tuberculosis patient to half life in tuberculosis patient; conditions: in vivo
[12] = AUC (0 to 24 hrs) in diabetic tuberculosis patient at 15 mg/kg, po by HPLC analysis; set-up: time < 24 hr, dose 15 mg/kg, route oral; conditions: human, plasma
[13] = AUC (0 to 24 hrs) in tuberculosis patient at 15 mg/kg, po by HPLC analysis; set-up: time < 24 hr, dose 15 mg/kg, route oral; conditions: human, plasma
Homo sapiens [14] = assay: Ratio of sAUC (0 to 24 hrs) for diabetic tuberculosis patient to sAUC (0 to 24 hrs) for tuberculosis patient at 15 mg/kg, po; set-up: dose 15 mg/kg, route oral; conditions: in vivo
[15] = Cmax in diabetic tuberculosis patient at 15 mg/kg, po by HPLC analysis; set-up: dose 15 mg/kg, route oral; conditions: human, in vivo
[16] = Cmax in tuberculosis patient at 15 mg/kg, po by HPLC analysis; set-up: dose 15 mg/kg, route oral; conditions: human, in vivo
Homo sapiens [17] = assay: Ratio of Cmax in diabetic tuberculosis patient to Cmax in tuberculosis patient at 15 mg/kg, po; set-up: dose 15 mg/kg, route oral; conditions: in vivo
[18] = Tmax in diabetic tuberculosis patient at 15 mg/kg, po by HPLC analysis; set-up: dose 15 mg/kg, route oral; conditions: human, in vivo
[19] = Tmax in tuberculosis patient at 15 mg/kg, po by HPLC analysis; set-up: dose 15 mg/kg, route oral; conditions: human, in vivo
[20] = Apparent oral clearance in tuberculosis patient at 10 mg/kg, po by HPLC analysis; set-up: dose 10 mg/kg, route oral; conditions: human, in vivo
[21] = Apparent volume of distribution in tuberculosis patient at 10 mg/kg, po by HPLC analysis; set-up: dose 10 mg/kg, route oral; conditions: human, in vivo, read-out: Vc/F
[22] = Apparent volume of distribution in diabetic tuberculosis patient at 10 mg/kg, po and 10 mg/kg, iv by HPLC analysis; conditions: human, in vivo, read-out: Vc/F
[23] = Bioavailability in diabetic tuberculosis patient at 10 mg/kg, po and 10 mg/kg, iv by HPLC analysis; conditions: human, in vivo
[24] = Oral bioavailability in tuberculosis patient at 10 mg/kg by HPLC analysis; conditions: human, in vivo
[25] = AUC (0 to 24 hrs) in diabetic tuberculosis patient at 30 mg/kg, po by HPLC analysis; set-up: time < 24 hr, dose 30 mg/kg, route oral; conditions: human, plasma
[26] = AUC (0 to 24 hrs) in tuberculosis patient at 30 mg/kg, po by HPLC analysis; set-up: time < 24 hr, dose 30 mg/kg, route oral; conditions: human, plasma
Homo sapiens [27] = assay: Ratio of AUC (0 to 24 hrs) for diabetic tuberculosis patient to AUC (0 to 24 hrs) for tuberculosis patient at 30 mg/kg, po; set-up: dose 30 mg/kg, route oral; conditions: in vivo
[28] = Cmax in diabetic tuberculosis patient at 30 mg/kg, po by HPLC analysis; set-up: dose 30 mg/kg, route oral; conditions: human, in vivo
[29] = Cmax in tuberculosis patient at 30 mg/kg, po by HPLC analysis; set-up: dose 30 mg/kg, route oral; conditions: human, in vivo
Homo sapiens [30] = assay: Ratio of Cmax in diabetic tuberculosis patient to Cmax in tuberculosis patient at 30 mg/kg, po; set-up: dose 30 mg/kg, route oral; conditions: in vivo
[31] = Tmax in diabetic tuberculosis patient at 30 mg/kg, po by HPLC analysis; set-up: dose 30 mg/kg, route oral; conditions: human, in vivo
[32] = Tmax in tuberculosis patient at 30 mg/kg, po by HPLC analysis; set-up: dose 30 mg/kg, route oral; conditions: human, in vivo

With `CO[C@H]1/C=C/O[C@@]2(C)Oc3c(C)c(O)c4c(O)c(c(/C=N/N5CCN(C)CC5)c(O)c4c3C2=O)NC(=O)/C(C)=C\C=C\[C@H](C)[C@H](O)[C@@H](C)[C@@H](O)[C@@H](C)[C@H](O)[C@@H]1C` as the compound, how does the AUC(0-t) [1] read?
Its AUC(0-t) is 5.7 µg·h/mL.

What about the AUC(0-t) at 24 h [2] of the same compound?
The AUC(0-t) at 24 h was 8.3 µg·h/mL.

And the Ratio (Homo sapiens [3])?
Its Ratio is 0.69.

What about the Cmax [4] of the same compound?
Its Cmax is 1.1 µg/mL.

And the Cmax [5]?
Its Cmax is 1.4 µg/mL.

And the Ratio (Homo sapiens [6])?
Its Ratio is 0.78.

What about the Tmax [7] of the same compound?
Its Tmax is 3 h.

And the Tmax [8]?
Its Tmax is 4 h.

What about the half-life [9] of the same compound?
Its half-life is 2.3 h.

And the half-life [10]?
The half-life was 2.4 h.

What about the Ratio (Homo sapiens [11]) of the same compound?
The Ratio was 0.94.

What does the source list for `CC[C@@H](CO)NCCN[C@@H](CC)CO` [ETHAMBUTOL]?
AUC(0-t) at 24 h [12]: 13.8 µg·h/mL; AUC(0-t) at 24 h [13]: 13.5 µg·h/mL; Ratio (Homo sapiens [14]): 1.02; Cmax [15]: 2.2 µg/mL; Cmax [16]: 1.95 µg/mL; Ratio (Homo sapiens [17]): 1.12; Tmax [18]: 3 h; Tmax [19]: 3 h

For `CO[C@H]1/C=C/O[C@@]2(C)Oc3c(C)c(O)c4c(O)c(c(/C=N/N5CCN(C)CC5)c(O)c4c3C2=O)NC(=O)/C(C)=C\C=C\[C@H](C)[C@H](O)[C@@H](C)[C@@H](O)[C@@H](C)[C@H](OC(C)=O)[C@@H]1C` [RIFAMPIN], which AUC(0-t) [1] is on record?
Its AUC(0-t) is 49 µg·h/mL.

And the AUC(0-t) at 24 h [2]?
Its AUC(0-t) at 24 h is 50.6 µg·h/mL.

What about the Cmax [5] of the same compound?
Its Cmax is 9.6 µg/mL.

And the Tmax [7]?
Its Tmax is 2 h.

What about the Tmax [8] of the same compound?
The Tmax was 2.5 h.

What about the CL/F [20] of the same compound?
The CL/F was 148 mL/min.

And the Vd/F [21]?
The Vd/F was 27.6 L.

What about the Vd/F [22] of the same compound?
Its Vd/F is 27.4 L.

And the bioavailability [23]?
Its bioavailability is 69%.

What about the bioavailability [24] of the same compound?
The bioavailability was 74%.

Which AUC(0-t) at 24 h [25] does the source give for `NC(=O)c1cnccn1` [PYRAZINAMIDE] here?
The AUC(0-t) at 24 h was 409 µg·h/mL.

And the AUC(0-t) at 24 h [26]?
Its AUC(0-t) at 24 h is 468 µg·h/mL.

What about the Ratio (Homo sapiens [27]) of the same compound?
The Ratio was 0.88.

What about the Cmax [28] of the same compound?
Its Cmax is 45.5 µg/mL.

What about the Cmax [29] of the same compound?
The Cmax was 47 µg/mL.

What about the Ratio (Homo sapiens [30]) of the same compound?
The Ratio was 0.96.

And the Tmax [31]?
The Tmax was 1 h.

What about the Tmax [32] of the same compound?
The Tmax was 1.5 h.
